US10835542B2, “9-aminomethyl minocycline compounds and use thereof in treating community-acquired bacterial pneumonia (CABP)” (Paratek Pharmaceuticals, Inc., priority 2016, dated 2020)

## COc1c(N2C[C@@H]3CCCN[C@@H]3C2)c(F)cc2c(=O)c(C(=O)O)cn(C3CC3)c12 [Moxifloxacin, moxifloxacin, reference compound]
ITT population
  Total number of deaths: 4
Safety population
  Subjects who died: 4 (1.0) n (%)
  Subjects with at least one Adverse Event (AE): 200 (51.5) n (%)
  Subjects with at least one Drug-Related Serious TEAE: 2 (0.5) n (%)
  Subjects with at least one Drug-Related TEAE: 69 (17.8) n (%)
  Subjects with at least one Serious TEAE: 26 (6.7) n (%)
  Subjects with at least one Serious TEAE Leading to Death: 4 (1.0) n (%)
  Subjects with at least one Serious TEAE Leading to Premature Discontinuation of Test Article: 11 (2.8) n (%)
  Subjects with at least one Severe TEAE: 26 (6.7) n (%)
  Subjects with at least one TEAE: 188 (48.5) n (%)
  Subjects with at least one TEAE Leading to Dose Interruption: 0 n (%)
  Subjects with at least one TEAE Leading to Premature Discontinuation of Study: 9 (2.3) n (%)
  Subjects with at least one TEAE Leading to Premature Discontinuation of Test Article: 27 (7.0) n (%)
  TEAE leading to study drug discontinuation: Diarrhoea: 1 (0.3) n (%)
  TEAE leading to study drug discontinuation: Dyspepsia: 1 (0.3) n (%)
  TEAE leading to study drug discontinuation: Gastrointestinal Disorders: 2 (0.5) n (%)
  TEAE leading to study drug discontinuation: Nausea: 0 n (%)
  TEAE leading to study drug discontinuation: Vomiting: 0 n (%)
  TEAE: Alanine Aminotransferase Increased: 18 (4.6) n (%)
  TEAE: Aspartate Aminotransferase Increased: 14 (3.6) n (%)
  TEAE: Constipation: 6 (1.5) n (%)
  TEAE: Diarrhoea: 31 (8.0) n (%)
  TEAE: Dyspepsia: 2 (0.5) n (%)
  TEAE: Gamma-Glutamyltransferase Increased: 8 (2.1) n (%)
  TEAE: Headache: 5 (1.3) n (%)
  TEAE: Hypertension: 11 (2.8) n (%)
  TEAE: Insomnia: 8 (2.1) n (%)
  TEAE: Nausea: 21 (5.4) n (%)
  TEAE: Pseudomembranous Colitis: 1 (0.3) n (%)
  TEAE: Vomiting: 6 (1.5) n (%)
  Total Number of AEs: 520
  Total Number of TEAEs: 461
